{"source": "paper PMC9076199", "about": "(RSC Advances, 2019)", "key": {"[1]": {"target": "T1, human carboxylesterase 2 (CES2) (Homo sapiens, UniProt O00748)", "T1 sequence (O00748 27-559)": "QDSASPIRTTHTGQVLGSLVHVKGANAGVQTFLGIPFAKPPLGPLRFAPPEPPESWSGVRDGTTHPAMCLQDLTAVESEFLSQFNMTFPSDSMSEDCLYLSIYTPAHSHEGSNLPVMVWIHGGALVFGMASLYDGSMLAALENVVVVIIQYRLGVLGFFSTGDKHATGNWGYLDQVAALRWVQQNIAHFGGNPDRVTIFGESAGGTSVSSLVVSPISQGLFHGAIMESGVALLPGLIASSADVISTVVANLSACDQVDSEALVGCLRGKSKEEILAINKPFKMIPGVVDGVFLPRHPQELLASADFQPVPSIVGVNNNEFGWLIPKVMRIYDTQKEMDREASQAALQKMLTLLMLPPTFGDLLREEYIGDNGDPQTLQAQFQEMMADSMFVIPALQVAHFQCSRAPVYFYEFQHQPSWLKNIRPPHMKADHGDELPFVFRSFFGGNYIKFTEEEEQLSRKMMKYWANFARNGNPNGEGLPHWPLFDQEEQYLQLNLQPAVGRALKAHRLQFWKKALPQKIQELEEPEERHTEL", "experiment": "Inhibition of CES2-mediated FD", "format": "biochemical", "settings": "for selectivity for CES2 over CES1 (in words): CES2 versus CES1 IC50"}, "[2]": {"target": "T2, human carboxylesterase 1 (CES1) (Homo sapiens, UniProt P23141)", "T2 sequence (P23141 18-567)": "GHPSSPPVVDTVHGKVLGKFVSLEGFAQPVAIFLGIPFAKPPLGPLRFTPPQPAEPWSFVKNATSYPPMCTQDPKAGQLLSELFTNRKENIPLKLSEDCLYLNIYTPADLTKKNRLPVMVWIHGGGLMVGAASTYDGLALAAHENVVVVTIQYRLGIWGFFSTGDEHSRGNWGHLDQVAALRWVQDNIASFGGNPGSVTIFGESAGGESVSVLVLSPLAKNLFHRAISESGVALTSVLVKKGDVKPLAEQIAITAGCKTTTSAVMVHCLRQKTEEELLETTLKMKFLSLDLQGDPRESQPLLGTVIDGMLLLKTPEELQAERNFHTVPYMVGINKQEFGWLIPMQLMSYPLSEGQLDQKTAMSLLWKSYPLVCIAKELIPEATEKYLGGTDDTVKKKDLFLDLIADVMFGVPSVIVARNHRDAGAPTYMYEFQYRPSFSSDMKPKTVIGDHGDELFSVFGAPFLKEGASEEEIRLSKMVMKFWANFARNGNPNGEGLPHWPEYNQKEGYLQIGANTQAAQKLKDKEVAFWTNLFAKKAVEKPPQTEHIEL", "experiment": "Inhibition of CES1-mediated DME", "format": "biochemical"}}, "data": [{"molecule": "Cc1ccccc1C(c1c(C)[nH]c2ccccc12)c1c(C)[nH]c2ccccc12", "note": "[4b]", "values": [{"measurement": "IC50", "setting": "[1]", "result": "560 ± 160", "unit": "nM"}]}, {"molecule": "Cc1cccc(C(c2c(C)[nH]c3ccccc23)c2c(C)[nH]c3ccccc23)c1", "note": "[4c]", "values": [{"measurement": "IC50", "setting": "[1]", "result": "340 ± 91", "unit": "nM"}]}, {"molecule": "Cc1ccc(C(c2c(C)[nH]c3ccccc23)c2c(C)[nH]c3ccccc23)cc1", "note": "[4d]", "values": [{"measurement": "IC50", "setting": "[1]", "result": "280 ± 27", "unit": "nM"}]}, {"molecule": "COc1ccccc1C(c1c(C)[nH]c2ccccc12)c1c(C)[nH]c2ccccc12", "note": "[4e]", "values": [{"measurement": "IC50", "setting": "[1]", "result": "200 ± 44", "unit": "nM"}]}, {"molecule": "COc1cccc(C(c2c(C)[nH]c3ccccc23)c2c(C)[nH]c3ccccc23)c1", "note": "[4f]", "values": [{"measurement": "IC50", "setting": "[1]", "result": "1280 ± 240", "unit": "nM"}]}, {"molecule": "COc1ccc(C(c2c(C)[nH]c3ccccc23)c2c(C)[nH]c3ccccc23)cc1", "note": "[4g]", "values": [{"measurement": "IC50", "setting": "[2]", "result": "2900 ± 240", "unit": "nM"}, {"measurement": "IC50", "setting": "[1]", "result": "150 ± 32", "unit": "nM"}, {"measurement": "selectivity for CES2 over CES1 (in words)", "setting": "[1]", "result": "good selectivity over CES1"}]}, {"molecule": "Cc1[nH]c2ccccc2c1C(c1ccccc1Cl)c1c(C)[nH]c2ccccc12", "note": "[4h]", "values": [{"measurement": "IC50", "setting": "[1]", "result": "570 ± 86", "unit": "nM"}]}, {"molecule": "Cc1[nH]c2ccccc2c1C(c1cccc(Cl)c1)c1c(C)[nH]c2ccccc12", "note": "[4i]", "values": [{"measurement": "IC50", "setting": "[1]", "result": "1230 ± 370", "unit": "nM"}]}, {"molecule": "Cc1[nH]c2ccccc2c1C(c1ccc(Cl)cc1)c1c(C)[nH]c2ccccc12", "note": "[4j]", "values": [{"measurement": "IC50", "setting": "[1]", "result": "840 ± 230", "unit": "nM"}]}, {"molecule": "Cc1[nH]c2ccccc2c1C(c1ccccc1Br)c1c(C)[nH]c2ccccc12", "note": "[4k]", "values": [{"measurement": "IC50", "setting": "[1]", "result": "350 ± 91", "unit": "nM"}]}, {"molecule": "Cc1[nH]c2ccccc2c1C(c1cccc(Br)c1)c1c(C)[nH]c2ccccc12", "note": "[4l]", "values": [{"measurement": "IC50", "setting": "[1]", "result": "3170 ± 810", "unit": "nM"}]}, {"molecule": "Cc1[nH]c2ccccc2c1C(c1ccc(Br)cc1)c1c(C)[nH]c2ccccc12", "note": "[4m]", "values": [{"measurement": "IC50", "setting": "[1]", "result": "1210 ± 280", "unit": "nM"}]}, {"molecule": "Cc1[nH]c2ccccc2c1C(c1ccccc1[N+](=O)[O-])c1c(C)[nH]c2ccccc12", "note": "[4n]", "values": [{"measurement": "IC50", "setting": "[2]", "result": "3680 ± 430", "unit": "nM"}, {"measurement": "IC50", "setting": "[1]", "result": "190 ± 45", "unit": "nM"}, {"measurement": "selectivity for CES2 over CES1 (in words)", "setting": "[1]", "result": "good selectivity over CES1"}]}, {"molecule": "Cc1[nH]c2ccccc2c1C(c1cccc([N+](=O)[O-])c1)c1c(C)[nH]c2ccccc12", "note": "[4o]", "values": [{"measurement": "IC50", "setting": "[1]", "result": "350 ± 110", "unit": "nM"}]}, {"molecule": "Cc1[nH]c2ccccc2c1C(c1ccc([N+](=O)[O-])cc1)c1c(C)[nH]c2ccccc12", "note": "[4p]", "values": [{"measurement": "IC50", "setting": "[1]", "result": "1220 ± 200", "unit": "nM"}]}]}
